Test results from patent publication US20180110754A1, “CENICRIVIROC FOR THE TREATMENT OF FIBROSIS” (Tobira Therapeutics, Inc., priority 2015, published 2018).

Assay: Study 202: fasting metabolic laboratory parameters
Type: in vivo
Description: All abnormalities in total cholesterol, LDL cholesterol, triglycerides, or glucose were Grade 1 or Grade 2.
Mean baseline values and changes from baseline in HbA1c, HOMA-IR, fasting LDL, fasting HDL, fasting total cholesterol, fasting total cholesterol/HDL ratio, and fasting triglycerides are shown in Table 36.

[1] = All CVC (N = 115), EFV (N = 28), through Week 48
[2] = CVC 100 mg (N = 58), through Week 48
[3] = CVC 200 mg (N = 57), through Week 48

SMILES: CCCCOCCOc1ccc(-c2ccc3c(c2)/C=C(/C(=O)Nc2ccc([S@@+]([O-])Cc4cncn4CCC)cc2)CCCN3CC(C)C)cc1 [CVC, (S)-8-[4-(2-Butoxyethoxy)phenyl]-1-isobutyl-N-(4-{[(1-propyl-1H-imidazol-5-yl)methyl]sulfinyl}phenyl)-1,2,3,4-tetrahydro-1-benzazocine-5-carboxamide]
- Any graded (Grade 1-4) fasting laboratory abnormality, n subjects [1]: 16
- Fasting LDL cholesterol abnormality, any grade, n subjects [1]: 6
- Fasting LDL cholesterol, worst Grade 1, n subjects [1]: 3
- Fasting LDL cholesterol, worst Grade 2, n subjects [1]: 3
- Fasting LDL cholesterol, worst Grade 3, n subjects [1]: 0
- Fasting LDL cholesterol, worst Grade 4, n subjects [1]: 0
- Fasting glucose (serum, high) abnormality, any grade, n subjects [1]: 5
- Fasting glucose (serum, high), worst Grade 1, n subjects [1]: 3
- Fasting glucose (serum, high), worst Grade 2, n subjects [1]: 2
- Fasting glucose (serum, high), worst Grade 3, n subjects [1]: 0
- Fasting glucose (serum, high), worst Grade 4, n subjects [1]: 0
- Fasting laboratory abnormality, worst Grade 1, n subjects [1]: 9
- Fasting laboratory abnormality, worst Grade 2, n subjects [1]: 7
- Fasting laboratory abnormality, worst Grade 3, n subjects [1]: 0
- Fasting laboratory abnormality, worst Grade 4, n subjects [1]: 0
- Fasting total cholesterol abnormality, any grade, n subjects [1]: 8
- Fasting total cholesterol, worst Grade 1, n subjects [1]: 5
- Fasting total cholesterol, worst Grade 2, n subjects [1]: 3
- Fasting total cholesterol, worst Grade 3, n subjects [1]: 0
- Fasting total cholesterol, worst Grade 4, n subjects [1]: 0
- Fasting triglycerides abnormality, any grade, n subjects [1]: 1
- Fasting triglycerides, worst Grade 1, n subjects [1]: 0
- Fasting triglycerides, worst Grade 2, n subjects [1]: 1
- Fasting triglycerides, worst Grade 3, n subjects [1]: 0
- Fasting triglycerides, worst Grade 4, n subjects [1]: 0
- Any graded (Grade 1-4) fasting laboratory abnormality, n subjects [2]: 4 (7%)
- Fasting LDL cholesterol abnormality, any grade, n subjects [2]: 2 (3%)
- Fasting LDL cholesterol, worst Grade 1, n subjects [2]: 1 (2%)
- Fasting LDL cholesterol, worst Grade 2, n subjects [2]: 1 (2%)
- Fasting LDL cholesterol, worst Grade 3, n subjects [2]: 0
- Fasting LDL cholesterol, worst Grade 4, n subjects [2]: 0
- Fasting glucose (serum, high) abnormality, any grade, n subjects [2]: 0
- Fasting glucose (serum, high), worst Grade 1, n subjects [2]: 0
- Fasting glucose (serum, high), worst Grade 2, n subjects [2]: 0
- Fasting glucose (serum, high), worst Grade 3, n subjects [2]: 0
- Fasting glucose (serum, high), worst Grade 4, n subjects [2]: 0
- Fasting laboratory abnormality, worst Grade 1, n subjects [2]: 3 (5%)
- Fasting laboratory abnormality, worst Grade 2, n subjects [2]: 1 (2%)
- Fasting laboratory abnormality, worst Grade 3, n subjects [2]: 0
- Fasting laboratory abnormality, worst Grade 4, n subjects [2]: 0
- Fasting total cholesterol abnormality, any grade, n subjects [2]: 3 (5%)
- Fasting total cholesterol, worst Grade 1, n subjects [2]: 3 (5%)
- Fasting total cholesterol, worst Grade 2, n subjects [2]: 0
- Fasting total cholesterol, worst Grade 3, n subjects [2]: 0
- Fasting total cholesterol, worst Grade 4, n subjects [2]: 0
- Fasting triglycerides abnormality, any grade, n subjects [2]: 0
- Fasting triglycerides, worst Grade 1, n subjects [2]: 0
- Fasting triglycerides, worst Grade 2, n subjects [2]: 0
- Fasting triglycerides, worst Grade 3, n subjects [2]: 0
- Fasting triglycerides, worst Grade 4, n subjects [2]: 0
- Any graded (Grade 1-4) fasting laboratory abnormality, n subjects [3]: 12
- Fasting LDL cholesterol abnormality, any grade, n subjects [3]: 4
- Fasting LDL cholesterol, worst Grade 1, n subjects [3]: 2
- Fasting LDL cholesterol, worst Grade 2, n subjects [3]: 2
- Fasting LDL cholesterol, worst Grade 3, n subjects [3]: 0
- Fasting LDL cholesterol, worst Grade 4, n subjects [3]: 0
- Fasting glucose (serum, high) abnormality, any grade, n subjects [3]: 5
- Fasting glucose (serum, high), worst Grade 1, n subjects [3]: 3
- Fasting glucose (serum, high), worst Grade 2, n subjects [3]: 2
- Fasting glucose (serum, high), worst Grade 3, n subjects [3]: 0
- Fasting glucose (serum, high), worst Grade 4, n subjects [3]: 0
- Fasting laboratory abnormality, worst Grade 1, n subjects [3]: 6
- Fasting laboratory abnormality, worst Grade 2, n subjects [3]: 6
- Fasting laboratory abnormality, worst Grade 3, n subjects [3]: 0
- Fasting laboratory abnormality, worst Grade 4, n subjects [3]: 0
- Fasting total cholesterol abnormality, any grade, n subjects [3]: 5
- Fasting total cholesterol, worst Grade 1, n subjects [3]: 2
- Fasting total cholesterol, worst Grade 2, n subjects [3]: 3
- Fasting total cholesterol, worst Grade 3, n subjects [3]: 0
- Fasting total cholesterol, worst Grade 4, n subjects [3]: 0
- Fasting triglycerides abnormality, any grade, n subjects [3]: 1
- Fasting triglycerides, worst Grade 1, n subjects [3]: 0
- Fasting triglycerides, worst Grade 2, n subjects [3]: 1
- Fasting triglycerides, worst Grade 3, n subjects [3]: 0
- Fasting triglycerides, worst Grade 4, n subjects [3]: 0
- Fasting HDL, mean change from baseline (Week 4, All CVC, EFV): -2.92 mg/dL
- Fasting LDL, mean change from baseline (Week 4, All CVC, EFV): -9.72 mg/dL
- Fasting total cholesterol, mean change from baseline (Week 4, All CVC, EFV): -14 mg/dL
- Fasting triglycerides, mean change from baseline (Week 4, All CVC, EFV): -5 mg/dL
- HOMA-IR, mean change from baseline (Week 4, All CVC, EFV): −0.30
- HbA1c, mean change from baseline (Week 4, All CVC, EFV): −0.03 % Hb
- Fasting HDL, mean change from baseline (Week 4, CVC 100 mg): -3.98 mg/dL
- Fasting LDL, mean change from baseline (Week 4, CVC 100 mg): -10.90 mg/dL
- Fasting total cholesterol, mean change from baseline (Week 4, CVC 100 mg): -16 mg/dL
- Fasting triglycerides, mean change from baseline (Week 4, CVC 100 mg): -8 mg/dL
- HOMA-IR, mean change from baseline (Week 4, CVC 100 mg): 0.11
- HbA1c, mean change from baseline (Week 4, CVC 100 mg): 0.01 % Hb
- Fasting HDL, mean change from baseline (Week 4, CVC 200 mg): -1.84 mg/dL
- Fasting LDL, mean change from baseline (Week 4, CVC 200 mg): -8.46 mg/dL
- Fasting total cholesterol, mean change from baseline (Week 4, CVC 200 mg): -12 mg/dL
- Fasting triglycerides, mean change from baseline (Week 4, CVC 200 mg): -2 mg/dL
- HOMA-IR, mean change from baseline (Week 4, CVC 200 mg): −0.71
- HbA1c, mean change from baseline (Week 4, CVC 200 mg): −0.08 % Hb
- Fasting HDL, mean change from baseline (Week 12, All CVC, EFV): -2.09 mg/dL
- Fasting LDL, mean change from baseline (Week 12, All CVC, EFV): -11.44 mg/dL
- Fasting total cholesterol, mean change from baseline (Week 12, All CVC, EFV): -17 mg/dL
- Fasting triglycerides, mean change from baseline (Week 12, All CVC, EFV): -15 mg/dL
- HOMA-IR, mean change from baseline (Week 12, All CVC, EFV): −0.56
- HbA1c, mean change from baseline (Week 12, All CVC, EFV): −0.06 % Hb
- Fasting HDL, mean change from baseline (Week 12, CVC 100 mg): -2.96 mg/dL
- Fasting LDL, mean change from baseline (Week 12, CVC 100 mg): -11.20 mg/dL
- Fasting total cholesterol, mean change from baseline (Week 12, CVC 100 mg): -17 mg/dL
- Fasting triglycerides, mean change from baseline (Week 12, CVC 100 mg): -16 mg/dL
- HOMA-IR, mean change from baseline (Week 12, CVC 100 mg): −0.59
- HbA1c, mean change from baseline (Week 12, CVC 100 mg): −0.04 % Hb
- Fasting HDL, mean change from baseline (Week 12, CVC 200 mg): -1.22 mg/dL
- Fasting LDL, mean change from baseline (Week 12, CVC 200 mg): -11.69 mg/dL
- Fasting total cholesterol, mean change from baseline (Week 12, CVC 200 mg): -16 mg/dL
- Fasting triglycerides, mean change from baseline (Week 12, CVC 200 mg): -13 mg/dL
- HOMA-IR, mean change from baseline (Week 12, CVC 200 mg): −0.53
- HbA1c, mean change from baseline (Week 12, CVC 200 mg): −0.08 % Hb
- Fasting HDL, mean change from baseline (Week 24, All CVC, EFV): -1.45 mg/dL
- Fasting LDL, mean change from baseline (Week 24, All CVC, EFV): -8.64 mg/dL
- Fasting total cholesterol, mean change from baseline (Week 24, All CVC, EFV): -13 mg/dL
- Fasting triglycerides, mean change from baseline (Week 24, All CVC, EFV): -15 mg/dL
- HOMA-IR, mean change from baseline (Week 24, All CVC, EFV): −0.68
- HbA1c, mean change from baseline (Week 24, All CVC, EFV): 0.06 % Hb
- Fasting HDL, mean change from baseline (Week 24, CVC 100 mg): -2.15 mg/dL
- Fasting LDL, mean change from baseline (Week 24, CVC 100 mg): -10.21 mg/dL
- Fasting total cholesterol, mean change from baseline (Week 24, CVC 100 mg): -14 mg/dL
- Fasting triglycerides, mean change from baseline (Week 24, CVC 100 mg): -8 mg/dL
- HOMA-IR, mean change from baseline (Week 24, CVC 100 mg): −1.42
- HbA1c, mean change from baseline (Week 24, CVC 100 mg): 0.06 % Hb
- Fasting HDL, mean change from baseline (Week 24, CVC 200 mg): -0.71 mg/dL
- Fasting LDL, mean change from baseline (Week 24, CVC 200 mg): -6.93 mg/dL
- Fasting total cholesterol, mean change from baseline (Week 24, CVC 200 mg): -12 mg/dL
- Fasting triglycerides, mean change from baseline (Week 24, CVC 200 mg): -23 mg/dL
- HOMA-IR, mean change from baseline (Week 24, CVC 200 mg): 0.15
- HbA1c, mean change from baseline (Week 24, CVC 200 mg): 0.06 % Hb
- Fasting HDL, mean change from baseline (Week 48, All CVC, EFV): -0.96 mg/dL
- Fasting LDL, mean change from baseline (Week 48, All CVC, EFV): -8.49 mg/dL
- Fasting total cholesterol, mean change from baseline (Week 48, All CVC, EFV): -12 mg/dL
- Fasting triglycerides, mean change from baseline (Week 48, All CVC, EFV): -12 mg/dL
- HOMA-IR, mean change from baseline (Week 48, All CVC, EFV): −0.76
- HbA1c, mean change from baseline (Week 48, All CVC, EFV): 0.10 % Hb
- Fasting HDL, mean change from baseline (Week 48, CVC 100 mg): -1.63 mg/dL
- Fasting LDL, mean change from baseline (Week 48, CVC 100 mg): -11.16 mg/dL
- Fasting total cholesterol, mean change from baseline (Week 48, CVC 100 mg): -14 mg/dL
- Fasting triglycerides, mean change from baseline (Week 48, CVC 100 mg): -9 mg/dL
- HOMA-IR, mean change from baseline (Week 48, CVC 100 mg): −1.56
- HbA1c, mean change from baseline (Week 48, CVC 100 mg): 0.09 % Hb
- Fasting HDL, mean change from baseline (Week 48, CVC 200 mg): -0.21 mg/dL
- Fasting LDL, mean change from baseline (Week 48, CVC 200 mg): -5.20 mg/dL
- Fasting total cholesterol, mean change from baseline (Week 48, CVC 200 mg): -9 mg/dL
- Fasting triglycerides, mean change from baseline (Week 48, CVC 200 mg): -16 mg/dL
- HOMA-IR, mean change from baseline (Week 48, CVC 200 mg): 0.17
- HbA1c, mean change from baseline (Week 48, CVC 200 mg): 0.10 % Hb
- Change in fasting cholesterol (total, LDL, HDL) during treatment (through Week 48): A decrease was observed
